US20040253192A1, “Breath Freshening and Oral Cleansing Product Using Cardamom Oil” (priority 2002, published 2004)

Legend:
Assay type in all cases: cell-based
Porphyromonas gingivalis [1] = assay: MBC (minimum bactericidal concentration) determination, plating on blood agar; conditions: P. gingivalis, lowest concentration killing at least 99.9% of initial inoculum, plates 48 hours at 37° C.
Procedure: (§1) The MBC (Minimum bactericidal concentrations) were determined using the 96 well microtiter plate serial dilutions as described above for MIC studies. Serial dilution of cultures in wells showing no visible growth were performed and 10 microliters of culture were plated in triplicate on blood agar plates. Viable colonies were scored after incubation of the plates for 48 hours at 37° C. For each test bacterium, the number of CFU/ml were determined in the initial inoculum. The MBC was defined as the lowest concentration of a test compound that killed at least 99.9% of the cells present in the initial inoculum.

Fusobacterium nucleatum [2] = assay: as above; conditions: F. nucleatum, lowest concentration killing at least 99.9% of initial inoculum, plates 48 hours at 37° C.
Procedure: as §1

Porphyromonas gingivalis [3] = assay: MIC (minimum inhibitory concentration) study, 96 well microtiter plates; conditions: P. gingivalis, 48 hours at 37° C., turbidity at 660 nm
Procedure: (§2) In vitro tests were conducted with a gram positive supragingival plaque bacterium, Streptococcus mutans. In addition, two subgingival plaque bacteria associated with oral malodor were tested, Porphyromonas gingivalis and Fusobacterium nucleatum. The MIC (Minimum Inhibitory Concentrations) study protocol is as follows. Chlorhexidine was used as a positive control and sterile water was used as a negative control. Cardamom oil was suspended in 10% methanol with 3.8% Tween 80. […] 96 well microtiter plates were used for this study. Each well contained 5×10^5 colony forming units/ml of bacteria, serially diluted agents and bacterial growth medium. All bacterial cultures were incubated at 37° C. and stationary. Bacterial growth was estimated spectrophotometrically at 660 nm, after 48 hours. The MIC for each test bacteria was defined as the minimum concentration of test compound limiting turbidity to […].

Fusobacterium nucleatum [4] = assay: as above; conditions: F. nucleatum, 48 hours at 37° C., turbidity at 660 nm
Procedure: as §2

[H]/N=C(\N/C(=N/[H])NCCCCCCNC(=N)NC(=N)Nc1ccc(Cl)cc1)Nc1ccc(Cl)cc1 [Cholorhexidine, Chlorhexidine]
1.25 µg/mL: MBC (Porphyromonas gingivalis [1]) | MBC (Fusobacterium nucleatum [2]) | MIC (Porphyromonas gingivalis [3]) | MIC (Fusobacterium nucleatum [4])
